Test system: vaccinia virus
Assay: animal or person
Assay type: in vivo, ICR female mice
Details: Orthopoxvirus vaccinia, in Mus musculus, ip, 192 h, read-out: Prevention from vaccinia infection (Pock inhibition rate %)

Going from `COc1ccc(CNC/C=C(\C)CCC=C(C)C)cc1OC` to `COc1ccc(CNCC=C(C)CCC=C(C)CCC=C(C)CCC=C(C)CCC=C(C)CCC=C(C)CCC=C(C)CCC=C(C)CCC=C(C)C)cc1OC` [drawing 40], the inhibition in vivo at 50 mg/kg rises from 10% to 54.1%.

First: CC(C)=CCCC(C)=CCCC(C)=CCCC(C)=CCCC(C)=CCCC(C)=CCCC(C)=CCCC(C)=CCCC(C)=CCCC(C)=CCNc1ccc(C(=O)O)cc1 [drawing 26]
Second: CC(C)=CCCC(C)=CCCC(C)=CCCC(C)=CCCC(C)=CCCC(C)=CCCC(C)=CCCC(C)=CCCC(C)=CCCC(C)=CCNc1ccc(C(=O)O)c(O)c1 [drawing 27]
The inhibition in vivo at 50 mg/kg of the first is lower: 15% for the first, 42.9% for the second.

Going from `CC(C)=CCCC(C)=CCCC(C)=CCCC(C)=CCCC(C)=CCCC(C)=CCCC(C)=CCCC(C)=CCCC(C)=CCCC(C)=CCNCc1ccc(C)cc1` [drawing 31] to `CC(C)=CCCC(C)=CCCC(C)=CCCC(C)=CCCC(C)=CCCC(C)=CCCC(C)=CCCC(C)=CCCC(C)=CCCC(C)=CCNCc1ccc(Cl)cc1` [drawing 32], the inhibition in vivo at 50 mg/kg falls from 44.8% to 34%.

First: CC(C)=CCCC(C)=CCCC(C)=CCCC(C)=CCCC(C)=CCCC(C)=CCCC(C)=CCCC(C)=CCCC(C)=CCCC(C)=CCNCCCCc1ccccc1 [drawing 36]
Second: CC(C)=CCCC(C)=CCCC(C)=CCCC(C)=CCCC(C)=CCCC(C)=CCCC(C)=CCCC(C)=CCCC(C)=CCCC(C)=CCNCCCc1ccccc1 [drawing 28]
The inhibition in vivo at 50 mg/kg of the first is lower: 40.3% for the first, 68.1% for the second.

Compared with `COc1ccc(CNCC=C(C)CCC=C(C)CCC=C(C)CCC=C(C)CCC=C(C)CCC=C(C)CCC=C(C)CCC=C(C)CCC=C(C)CCC=C(C)C)cc1OC` [drawing 33], `COc1ccc(CCNCC=C(C)CCC=C(C)CCC=C(C)CCC=C(C)CCC=C(C)CCC=C(C)CCC=C(C)CCC=C(C)CCC=C(C)CCC=C(C)C)cc1OC` [drawing 37] is higher in inhibition in vivo at 50 mg/kg: 35.4% for the first, 68.1% for the second.

Compared with `COc1ccc(CNCC=C(C)CCC=C(C)CCC=C(C)CCC=C(C)CCC=C(C)CCC=C(C)CCC=C(C)CCC=C(C)CCC=C(C)CCC=C(C)C)cc1` [drawing 39], `CC(C)=CCCC(C)=CCCC(C)=CCCC(C)=CCCC(C)=CCCC(C)=CCCC(C)=CCCC(C)=CCCC(C)=CCCC(C)=CCNCc1ccc([N+](=O)[O-])cc1` [drawing 29] is lower in inhibition in vivo at 50 mg/kg: 58.8% for the first, 47.7% for the second.

Going from `CC(C)=CCCC(C)=CCCC(C)=CCCC(C)=CCCC(C)=CCCC(C)=CCCC(C)=CCCC(C)=CCCC(C)=CCCC(C)=CCNCC(O)c1ccccc1` (stereo not shown) [drawing 43] to `CC(C)=CCCC(C)=CCCC(C)=CCCC(C)=CCCC(C)=CCCC(C)=CCCC(C)=CCCC(C)=CCCC(C)=CCCC(C)=CCNCc1cccc2ccccc12` [drawing 30], the inhibition in vivo at 50 mg/kg falls from 64.4% to 21.6%.

Going from `COc1cc(CNCC=C(C)CCC=C(C)CCC=C(C)CCC=C(C)CCC=C(C)CCC=C(C)CCC=C(C)CCC=C(C)CCC=C(C)CCC=C(C)C)ccc1O` [drawing 38] to `COc1cccc(CNCC=C(C)CCC=C(C)CCC=C(C)CCC=C(C)CCC=C(C)CCC=C(C)CCC=C(C)CCC=C(C)CCC=C(C)CCC=C(C)C)c1OC` [drawing 42], the inhibition in vivo at 50 mg/kg falls from 67.1% to 32.5%.

Compared with `CC(C)=CCCC(C)=CCCC(C)=CCCC(C)=CCCC(C)=CCCC(C)=CCCC(C)=CCCC(C)=CCCC(C)=CCCC(C)=CCNC(c1ccccc1)c1ccccc1` [drawing 34], `CC(C)=CCCC(C)=CCCC(C)=CCCC(C)=CCCC(C)=CCCC(C)=CCCC(C)=CCCC(C)=CCCC(C)=CCCC(C)=CCNCCc1ccc(N)cc1` [drawing 35] is higher in inhibition in vivo at 50 mg/kg: 14.8% for the first, 64.4% for the second.

In the case of `CC(C)=CCCC(C)=CCCC(C)=CCCC(C)=CCCC(C)=CCCC(C)=CCCC(C)=CCCC(C)=CCCC(C)=CCCC(C)=CCNCc1cccc(CN)c1` [drawing 41], the inhibition in vivo at 50 mg/kg is reported as 91.4%.

Test system: not listed separately
Assay: Toxicity (50% lethal dose, intravenous)
Details: mouse, in vivo, ddY male mice 20-25 g, read-out: LD50 (Intravenously administered mg/kg)
Description: Using ddY male mice weighing 20-25 g, 50% lethal dose of each test compound when intravenously administered was obtained, the results of which are shown in Table 5.

Compared with `CC(C)=CCCC(C)=CCCC(C)=CCCC(C)=CCCC(C)=CCCC(C)=CCCC(C)=CCCC(C)=CCCC(C)=CCCC(C)=CCNCCc1ccc(N)cc1` [drawing 67], `CC(C)=CCCC(C)=CCCC(C)=CCCC(C)=CCCC(C)=CCCC(C)=CCCC(C)=CCCC(C)=CCCC(C)=CCCC(C)=CCNCc1ccc(C)cc1` [drawing 63] is 4.4-fold higher in LD50: 28 mg/kg for the first, 123 mg/kg for the second.

Going from `COc1ccc(CNCC=C(C)CCC=C(C)CCC=C(C)CCC=C(C)CCC=C(C)CCC=C(C)CCC=C(C)CCC=C(C)CCC=C(C)CCC=C(C)C)cc1` [drawing 68] to `CC(C)=CCCC(C)=CCCC(C)=CCCC(C)=CCCC(C)=CCCC(C)=CCCC(C)=CCCC(C)=CCCC(C)=CCCC(C)=CCNCc1ccc(Cl)cc1` [drawing 64], the LD50 rises from 68 mg/kg to 371 mg/kg (5.5-fold).

First: CC(C)=CCCC(C)=CCCC(C)=CCCC(C)=CCCC(C)=CCCC(C)=CCCC(C)=CCCC(C)=CCCC(C)=CCCC(C)=CCNc1ccc(C(=O)O)c(O)c1 [drawing 60]
Second: CC(C)=CCCC(C)=CCCC(C)=CCCC(C)=CCCC(C)=CCCC(C)=CCCC(C)=CCCC(C)=CCCC(C)=CCCC(C)=CCNc1ccc(C(=O)O)cc1 [drawing 59]
The LD50 of the first is 1.6-fold higher: 45 mg/kg for the first, 27.7 mg/kg for the second.

First: COc1cccc(CNCC=C(C)CCC=C(C)CCC=C(C)CCC=C(C)CCC=C(C)CCC=C(C)CCC=C(C)CCC=C(C)CCC=C(C)CCC=C(C)C)c1OC [drawing 70]
Second: COc1ccc(CNCC=C(C)CCC=C(C)CCC=C(C)CCC=C(C)CCC=C(C)CCC=C(C)CCC=C(C)CCC=C(C)CCC=C(C)CCC=C(C)C)cc1OC [drawing 65]
The LD50 of the first is 1.9-fold lower: 30 mg/kg for the first, 56.8 mg/kg for the second.

Compared with `COc1ccc(CNCC=C(C)CCC=C(C)CCC=C(C)CCC=C(C)CCC=C(C)CCC=C(C)CCC=C(C)CCC=C(C)CCC=C(C)C)cc1OC` [drawing 69], `CC(C)=CCCC(C)=CCCC(C)=CCCC(C)=CCCC(C)=CCCC(C)=CCCC(C)=CCCC(C)=CCCC(C)=CCCC(C)=CCNCc1ccc([N+](=O)[O-])cc1` [drawing 61] is higher in LD50: 26 mg/kg for the first, > 269 mg/kg for the second.

Compared with `CC(C)=CCCC(C)=CCCC(C)=CCCC(C)=CCCC(C)=CCCC(C)=CCCC(C)=CCCC(C)=CCCC(C)=CCCC(C)=CCNC(c1ccccc1)c1ccccc1` [drawing 66], `CC(C)=CCCC(C)=CCCC(C)=CCCC(C)=CCCC(C)=CCCC(C)=CCCC(C)=CCCC(C)=CCCC(C)=CCCC(C)=CCNCc1cccc2ccccc12` [drawing 62] is 5.7-fold lower in LD50: 1180 mg/kg for the first, 207 mg/kg for the second.

Test system: Human interferon; normal diploid cells (fibroblast)
Assay: Human interferon-inducing activity (in vitro), 3H-uridine-uptake inhibition
Assay type: cell-based
Details: 25 n molar suspension
Protocol: Interferon was induced according to the method of Edward A. Havell et al. by treating normal diploid cells (fibroblast) originated from human being with each test compound in the form of ethanol solution diluted with PBS (-) (25 n molar suspension). Using the radioisotope microassay method of H. Ishitsuka et al., interferon was measured in terms of 3H-uridine-uptakeinhibition rate.

Compared with `CC(C)=CCCC(C)=CCCC(C)=CCCC(C)=CCCC(C)=CCCC(C)=CCCC(C)=CCCC(C)=CCCC(C)=CCCC(C)=CCNCc1cccc(CN)c1` [drawing 84], `CC(C)=CCCC(C)=CCCC(C)=CCCC(C)=CCCC(C)=CCCC(C)=CCCC(C)=CCCC(C)=CCCC(C)=CCCC(C)=CCNCc1ccc(C)cc1` [drawing 76] is higher in “Human interferon 3H uridine-uptake inhibition rate %” value: 20.2% for the first, 91.1% for the second.

Going from `COc1cccc(CNCC=C(C)CCC=C(C)CCC=C(C)CCC=C(C)CCC=C(C)CCC=C(C)CCC=C(C)CCC=C(C)CCC=C(C)CCC=C(C)C)c1OC` [drawing 85] to `COc1ccc(CNCC=C(C)CCC=C(C)CCC=C(C)CCC=C(C)CCC=C(C)CCC=C(C)CCC=C(C)CCC=C(C)CCC=C(C)CCC=C(C)C)cc1OC` [drawing 78], the “Human interferon 3H uridine-uptake inhibition rate %” value rises from 26.6% to 77.8%.

First: COc1cc(CNCC=C(C)CCC=C(C)CCC=C(C)CCC=C(C)CCC=C(C)CCC=C(C)CCC=C(C)CCC=C(C)CCC=C(C)CCC=C(C)C)ccc1O [drawing 81]
Second: COc1ccc(CNCC=C(C)CCC=C(C)CCC=C(C)CCC=C(C)CCC=C(C)CCC=C(C)CCC=C(C)CCC=C(C)CCC=C(C)CCC=C(C)C)cc1 [drawing 82]
The “Human interferon 3H uridine-uptake inhibition rate %” value of the first is lower: 41.9% for the first, 61.4% for the second.

Going from `COc1cc(CNCC=C(C)CCC=C(C)CCC=C(C)CCC=C(C)CCC=C(C)CCC=C(C)CCC=C(C)CCC=C(C)CCC=C(C)C)cc(OC)c1OC` to `COc1ccc(CNCC=C(C)CCC=C(C)CCC=C(C)CCC=C(C)CCC=C(C)CCC=C(C)CCC=C(C)CCC=C(C)CCC=C(C)C)cc1OC` [drawing 83], the “Human interferon 3H uridine-uptake inhibition rate %” value rises from 21.5% to 86.9%.

Going from `CC(C)=CCCC(C)=CCCC(C)=CCCC(C)=CCCC(C)=CCCC(C)=CCCC(C)=CCCC(C)=CCCC(C)=CCCC(C)=CCNc1ccc(C(=O)O)cc1` [drawing 71] to `CC(C)=CCCC(C)=CCCC(C)=CCCC(C)=CCCC(C)=CCCC(C)=CCCC(C)=CCCC(C)=CCCC(C)=CCCC(C)=CCNc1ccc(C(=O)O)c(O)c1` [drawing 72], the “Human interferon 3H uridine-uptake inhibition rate %” value rises from 12.7% to 39.8%.

First: CC(C)=CCCC(C)=CCCC(C)=CCCC(C)=CCCC(C)=CCCC(C)=CCCC(C)=CCCC(C)=CCCC(C)=CCCC(C)=CCNCC(O)c1ccccc1 (stereo not shown) [drawing 86]
Second: CC(C)=CCCC(C)=CCCC(C)=CCCC(C)=CCCC(C)=CCCC(C)=CCCC(C)=CCCC(C)=CCCC(C)=CCCC(C)=CCNCCCc1ccccc1 [drawing 73]
The “Human interferon 3H uridine-uptake inhibition rate %” value of the first is higher: 37.6% for the first, 17.7% for the second.

First: CC(C)=CCCC(C)=CCCC(C)=CCCC(C)=CCCC(C)=CCCC(C)=CCCC(C)=CCCC(C)=CCCC(C)=CCCC(C)=CCNCc1cccc2ccccc12 [drawing 75]
Second: CC(C)=CCCC(C)=CCCC(C)=CCCC(C)=CCCC(C)=CCCC(C)=CCCC(C)=CCCC(C)=CCCC(C)=CCCC(C)=CCNCc1ccc(Cl)cc1 [drawing 77]
The “Human interferon 3H uridine-uptake inhibition rate %” value of the first is lower: 13.7% for the first, 75.7% for the second.

Going from `CC(C)=CCCC(C)=CCCC(C)=CCCC(C)=CCCC(C)=CCCC(C)=CCCC(C)=CCCC(C)=CCCC(C)=CCCC(C)=CCNCCCCc1ccccc1` [drawing 79] to `COc1ccc(CCNCC=C(C)CCC=C(C)CCC=C(C)CCC=C(C)CCC=C(C)CCC=C(C)CCC=C(C)CCC=C(C)CCC=C(C)CCC=C(C)C)cc1OC` [drawing 80], the “Human interferon 3H uridine-uptake inhibition rate %” value falls from 67.2% to 32.5%.

Going from `CC(C)=CCCC(C)=CCCC(C)=CCCC(C)=CCCC(C)=CCCC(C)=CCCC(C)=CCCC(C)=CCCC(C)=CCCC(C)=CCNCc1ccc([N+](=O)[O-])cc1` [drawing 74] to `COc1ccc(CNCC=C(C)CCCC(C)CCCC(C)CCCC(C)C)cc1OC` (stereo not shown) [drawing 87], the “Human interferon 3H uridine-uptake inhibition rate %” value falls from 23.6% to 1.8%.
